Data on 2 molecules can be found in patent US6710017B2, “Compositions and methods for controlling algae in recirculating water systems” (Avecia, Inc., priority 2000, dated 2004).

The conditions of data set [1]: agricultural fungicides, Table B; water; cited from earlier work.
Data set [2] is described as follows: Margin of exposure versus NOEL (estimated total daily dose to a child in a swimming pool). As to conditions: agricultural fungicides, Table B. The procedure: The herbicide preferably has a margin of exposure versus no observed effect level (“NOEL”) value of greater than 10, more preferably greater than 50, especially greater than 80, and more especially greater than 99. The margin of exposure versus NOEL is determined by estimating the total daily dose of the herbicide to a child in a swimming pool and determining the ratio of the NOEL to this. The total daily exposure may be estimated as follows. Oral exposure is estimated by assuming that the swimmer is in the water 3 hours per day, and that the swimmer ingests 50 milliliters of pool water per hour of swimming. It is also assumed that the herbicide will be present in the pool water at a concentration of 10 parts per million, equivalent to 10 milligrams per liter of pool water. The daily oral exposure is therefore estimated as the product of the swimming duration, the ingestion rate, and the concentration in the pool water. Dermal exposure is estimated by assuming the swimmer is in the water 3 hours per day, that the total body surface area, 8800 square centimeters, is immersed in the water, and that the herbicide permeates the skin at a rate, expressed in centimeters per hour, predicted by a model for skin permeation based on chemical structure, the Skinperm model, developed by W. F. ten Berge. A short description of the Skinperm model, can be accessed at: http://home.wxs.nl/˜wtberge/, which is incorporated herein by reference. The daily dermal exposure is then estimated as the product of the permeation rate, the concentration of the herbicide in the pool water (expressed in milligrams per cubic centimeter), the swimming duration, and the total body surface area. The total daily exposure is estimated as the sum of the daily oral and daily dermal exposure. The daily dose, expressed in milligrams per kilogram bodyweight per day, is then estimated as the total daily exposure divided by an assumed body weight of 22 kilograms.

The conditions of data set [3]: agricultural fungicides, Table B.

SMILES strings stand for the structures. In brackets after ≈: the same amount, converted by molar mass.

One may read the Solubility as the dissolved amount per volume that the medium holds. As for `CO/C=C(/C(=O)OC)c1ccccc1Oc1cc(Oc2ccccc2C#N)ncn1` [Azoxystrobin, Methyl (E)-2-2-6-(2-cyanophenoxy)pyrimidin-4-yloxyphenyl-3-methoxyacrylate], in data set [1], the Solubility is 10 µg/mL (≈ 24.8 µM). Also, the “Margin of Exposure vs NOEL” value in data set [2] is listed as 240. The “Margin of Exposure vs. RfD” value in data set [3] worked out at 2.4.

In the case of `CC(C)(C)C(=O)C(Oc1ccc(Cl)cc1)n1cncn1` (stereo not drawn) [Triademefon, 1-(4-chlorophenoxy)-3,3-dimethyl-1-(1H-1,2,4-triazol-1-yl)-2-butanone], in data set [1], the Solubility is 260 µg/mL (≈ 885 µM). Further, in data set [2], the “Margin of Exposure vs NOEL” value is listed as 104. In addition, the “Margin of Exposure vs. RfD” value in data set [3] is 0.4.
